Experimental data taken from PMC7692329, “Inhibitory Effect of AB-PINACA, Indazole Carboxamide Synthetic Cannabinoid, on Human Major Drug-Metabolizing Enzymes and Transporters” (Pharmaceutics, 2020).
“Also recorded” adds a separate entry of the source.

What was measured:
Assay type in all cases: in vitro ADME
[1] = target: T1, OATP1B1 (Homo sapiens, UniProt Q9Y6L6); experiment: OATP1B1-mediated estrone-3-sulfate uptake in HEK293-OATP1B1 cells
T1 construct: host or cells: HEK293

[2] = target: T2, OAT3 (Homo sapiens, UniProt Q8TCC7); experiment: OAT3-mediated estrone-3-sulfate uptake in HEK293-OAT3 cells
T2 construct: host or cells: HEK293
T2 sequence (Q8TCC7 1-542): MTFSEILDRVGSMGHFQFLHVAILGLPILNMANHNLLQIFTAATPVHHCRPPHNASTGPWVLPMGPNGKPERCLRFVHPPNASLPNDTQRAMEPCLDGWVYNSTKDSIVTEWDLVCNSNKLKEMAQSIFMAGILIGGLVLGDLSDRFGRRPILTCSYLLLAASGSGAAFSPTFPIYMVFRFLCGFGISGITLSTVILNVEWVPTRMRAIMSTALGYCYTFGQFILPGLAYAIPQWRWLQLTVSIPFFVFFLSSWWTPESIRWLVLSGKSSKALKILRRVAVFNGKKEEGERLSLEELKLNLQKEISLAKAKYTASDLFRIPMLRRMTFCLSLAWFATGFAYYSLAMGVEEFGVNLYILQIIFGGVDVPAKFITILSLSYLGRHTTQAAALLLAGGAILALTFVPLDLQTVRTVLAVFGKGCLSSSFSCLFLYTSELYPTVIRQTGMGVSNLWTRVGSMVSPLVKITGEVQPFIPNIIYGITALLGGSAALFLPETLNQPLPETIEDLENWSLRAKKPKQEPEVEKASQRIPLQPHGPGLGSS

[3] = target: T3, OAT1 (Homo sapiens, UniProt Q4U2R8); experiment: OAT1-mediated para-aminohippuric acid uptake in HEK293-OAT1 cells
T3 construct: host or cells: HEK293
T3 sequence (Q4U2R8 whole entry): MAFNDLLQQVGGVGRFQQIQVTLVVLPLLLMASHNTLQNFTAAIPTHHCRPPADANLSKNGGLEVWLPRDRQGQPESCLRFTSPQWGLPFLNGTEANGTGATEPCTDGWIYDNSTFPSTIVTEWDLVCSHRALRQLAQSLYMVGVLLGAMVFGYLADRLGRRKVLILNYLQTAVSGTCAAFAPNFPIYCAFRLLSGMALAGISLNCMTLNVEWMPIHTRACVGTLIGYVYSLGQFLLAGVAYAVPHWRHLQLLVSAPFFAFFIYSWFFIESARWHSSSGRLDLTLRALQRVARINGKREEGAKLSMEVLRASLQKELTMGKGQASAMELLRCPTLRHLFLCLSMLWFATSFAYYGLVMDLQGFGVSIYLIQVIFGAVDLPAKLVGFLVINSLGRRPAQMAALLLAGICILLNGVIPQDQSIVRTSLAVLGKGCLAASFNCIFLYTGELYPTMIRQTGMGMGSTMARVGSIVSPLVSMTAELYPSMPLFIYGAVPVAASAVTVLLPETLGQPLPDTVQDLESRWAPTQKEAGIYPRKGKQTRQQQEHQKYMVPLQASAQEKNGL

[4] = target: T4, OCT1 (Homo sapiens, UniProt O15245); experiment: OCT1-mediated methyl-4-phenylpyridinium uptake in HEK293-OCT1 cells
T4 construct: host or cells: HEK293
T4 sequence (O15245 1-554): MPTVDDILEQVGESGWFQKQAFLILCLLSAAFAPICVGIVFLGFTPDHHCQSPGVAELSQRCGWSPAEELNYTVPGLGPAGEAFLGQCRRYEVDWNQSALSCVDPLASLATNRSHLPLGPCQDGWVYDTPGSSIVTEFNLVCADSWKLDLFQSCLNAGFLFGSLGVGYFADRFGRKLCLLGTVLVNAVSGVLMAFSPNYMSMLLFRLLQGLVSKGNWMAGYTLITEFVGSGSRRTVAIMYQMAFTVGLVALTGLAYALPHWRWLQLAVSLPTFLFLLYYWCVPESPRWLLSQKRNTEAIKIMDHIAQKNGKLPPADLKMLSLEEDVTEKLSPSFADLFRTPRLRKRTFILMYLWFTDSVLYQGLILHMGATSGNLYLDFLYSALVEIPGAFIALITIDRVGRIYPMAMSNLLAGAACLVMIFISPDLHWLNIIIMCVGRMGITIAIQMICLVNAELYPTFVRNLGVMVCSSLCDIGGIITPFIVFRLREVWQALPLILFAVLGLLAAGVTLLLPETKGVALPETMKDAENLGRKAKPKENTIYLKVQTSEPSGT

T1 sequence (Q9Y6L6 whole entry): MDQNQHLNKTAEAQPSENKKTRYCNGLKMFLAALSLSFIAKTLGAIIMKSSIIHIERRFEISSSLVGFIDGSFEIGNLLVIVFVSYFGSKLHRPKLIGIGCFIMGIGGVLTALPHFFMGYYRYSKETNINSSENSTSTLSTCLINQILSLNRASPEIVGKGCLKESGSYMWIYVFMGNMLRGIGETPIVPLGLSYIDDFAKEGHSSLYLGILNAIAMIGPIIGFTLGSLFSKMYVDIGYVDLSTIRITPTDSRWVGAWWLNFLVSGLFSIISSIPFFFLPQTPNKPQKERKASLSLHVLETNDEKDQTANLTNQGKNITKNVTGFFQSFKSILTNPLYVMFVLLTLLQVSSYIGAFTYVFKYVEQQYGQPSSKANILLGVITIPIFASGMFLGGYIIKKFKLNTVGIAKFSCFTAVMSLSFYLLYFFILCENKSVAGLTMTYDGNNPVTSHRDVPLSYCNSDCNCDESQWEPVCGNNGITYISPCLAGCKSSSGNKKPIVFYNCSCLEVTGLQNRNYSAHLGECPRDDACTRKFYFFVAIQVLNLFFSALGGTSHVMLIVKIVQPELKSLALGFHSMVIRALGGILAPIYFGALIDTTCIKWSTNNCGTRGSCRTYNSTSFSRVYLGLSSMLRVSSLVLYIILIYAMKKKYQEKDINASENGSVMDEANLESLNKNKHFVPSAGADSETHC

CCCCCn1nc(C(=O)N[C@H](C(N)=O)C(C)C)c2ccccc21 [AB-PINACA, N-[(2S)-1-amino-3-methyl-1-oxobutan-2-yl]-1-pentyl-1H-indazole-3-carboxamide]
IC50 [1]: > 250 µM
IC50 [2]: 11.8 µM
Ki [2]: 8.3 µM
Mode of Inhibition, OAT3 ([2]; estrone-3-sulfate uptake, HEK293-OAT3 cells): competitively inhibited; also recorded: competitive inhibition
IC50 [3]: > 250 µM
IC50 [4]: 136 µM
Ki [4]: 146 µM
Mode of Inhibition, OCT1 ([4]; methyl-4-phenylpyridinium uptake, HEK293-OCT1 cells): mixed mode of inhibition
